From ChEMBL document CHEMBL1201862, “PubChem BioAssay data set” (2004)
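In this assay, cells in 96-well plates receive the compound at five concentrations for 48 hours. Endpoints are linearly interpolated between the surrounding concentrations. At the GI50, growth is halved.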 Active and inactive are the calls of the source. Cut-off read from the data, not from the text of the source: active = GI50 up to about 1.1 µM and inactive = higher.

Columns and labels:
Assay in all cases: DTP human tumour cell line panel, 48 h
[1] = tested on: 786-0
[2] = tested on: Hs-578T
[3] = tested on: M19-MEL
[4] = tested on: HOP-18
[5] = tested on: LXFL 529
[6] = tested on: SNB-78
[7] = tested on: DMS-114
[8] = tested on: DMS-273
[9] = tested on: RXF 631

Row | SMILES | GI50 [1] | GI50 [2] | GI50 [3] | GI50 [4] | GI50 [5] | GI50 [6] | GI50 [7] | GI50 [8] | GI50 [9]
1 | CC(=O)Nc1cc2c(cc1O)CC[C@@H]1[C@@H]2CC[C@]2(C)[C@@H](O)CC[C@@H]12 | 63 µM (inactive) | 74.1 µM (inactive) | – | – | – | – | – | – | –
2 | C=CCN1C(N)=C(C(N)=O)S/C1=C1/SC(=S)N(c2ccc(C)cc2)C1=O | – | – | > 100 µM (inactive) | 61.9 µM (inactive) | > 100 µM (inactive) | – | – | – | –
3 | COc1cc(Nc2c3ccccc3nc3ccccc23)ccc1NS(C)(=O)=O | – | – | 5.93 µM (inactive) | 13.3 µM (inactive) | 4.8 µM (inactive) | 7.67 µM (inactive) | 6.58 µM (inactive) | – | –
4 | CCCSc1ccc2[nH]c(N3C(=O)/C(=C/c4cc(OC)c(OC)c(OC)c4)N=C3c3ccccc3)cc2c1 | 3.24 µM (inactive) | 0.67 µM (active) | – | – | – | – | – | – | –
5 | N#CC(NC12CC3CC(CC(C3)C1)C2)c1ccccc1C(F)(F)F (stereo not drawn) | – | – | > 100 µM (inactive) | > 100 µM (inactive) | > 100 µM (inactive) | – | > 100 µM (inactive) | > 100 µM (inactive) | –
6 | O=C1/C(=C\c2cccc(Oc3ccccc3)c2)SC(c2ccccc2)N1c1cccc([N+](=O)[O-])c1 (stereo not drawn) | > 100 µM (inactive) | 98.9 µM (inactive) | – | – | – | – | – | – | –
7 | COc1ccc(CNc2nc3cc(C(F)(F)F)ccc3nc2C)cc1OC | 22 µM (inactive) | – | 32.8 µM (inactive) | – | 35.8 µM (inactive) | 12.2 µM (inactive) | – | 20 µM (inactive) | –
8 | COc1cccc(N/C(C)=C2/CCOC2=O)c1 | – | > 10 µM (inactive) | – | – | – | – | – | – | –
9 | O=C(CCl)NC(Cc1ccc(F)cc1)C(=O)O (stereo not drawn) | – | – | > 100 µM (inactive) | > 100 µM (inactive) | – | > 100 µM (inactive) | > 100 µM (inactive) | > 100 µM (inactive) | –
10 | Cc1sc(Cc2ccccc2)nc1-c1ccc(N)cc1 | – | 20.2 µM (inactive) | – | – | – | – | – | – | –
11 | CC(C)(C)CI | – | – | 23 µM (inactive) | > 10 µM (inactive) | 33.3 µM (inactive) | 32.1 µM (inactive) | 19.7 µM (inactive) | 15.1 µM (inactive) | 32.3 µM (inactive)
12 | O=C(O)c1ccc([Se][Se]c2ccc(C(=O)O)cc2)cc1 | 34 µM (inactive) | – | 19.5 µM (inactive) | 29.4 µM (inactive) | 23 µM (inactive) | 18.7 µM (inactive) | 20.6 µM (inactive) | 21.9 µM (inactive) | 19 µM (inactive)
13 | NC1C=NNC1=O (stereo not drawn) | – | – | – | < 0.01 µM (active) | > 100 µM (inactive) | > 100 µM (inactive) | > 100 µM (inactive) | > 100 µM (inactive) | –
14 | COc1cc(Nc2nc3cc(C(F)(F)F)ccc3n3cccc23)cc(OC)c1OC | – | > 100 µM (inactive) | – | – | – | – | – | – | –
15 | Cc1c2ccnc(C(F)(F)F)c2cc2c1[nH]c1ccccc12 | – | – | > 125 µM (inactive) | 0.673 µM (active) | – | 86.5 µM (inactive) | > 125 µM (inactive) | > 125 µM (inactive) | –
16 | CCCn1c(CN(Cc2nc3ccccc3n2CCC)Cc2nc3ccccc3n2CCC)nc2ccccc21 | – | 25.6 µM (inactive) | – | – | – | – | – | – | –
17 | O=S1(=O)CS(=O)(=O)OCCCO1 | > 100 µM (inactive) | > 100 µM (inactive) | – | – | – | – | – | – | –
18 | CC1(C)CCCC2(C)[C@@H]1CC[C@]13C[C@](C)(CC[C@@H]21)[C@@H]3CO (stereo partly drawn) | – | – | > 100 µM (inactive) | – | > 100 µM (inactive) | > 100 µM (inactive) | > 100 µM (inactive) | > 100 µM (inactive) | > 100 µM (inactive)
19 | C#C[C@]1(O)[C@@H](CO)O[C@@H](n2ccc(=O)[nH]c2=O)[C@@H]1O | < 0.0121 µM (active) | 1.41 µM (inactive) | – | – | – | – | – | – | –
